In ChEMBL document CHEMBL1128139, “Synthesis of 2,3-dideoxy-3,4-dihydroxymethyl substituted pyrimidine nucleoside analogues” (Bioorg Med Chem Lett, 1995) one finds inhibition and Activity data, which are given here for 4 compounds.

In assay [1] the test system is HIV-1 reverse transcriptase (Human immunodeficiency virus 1). The experiment in a line: Compound was tested for HIV-1 RT inhibition in in vitro assay;IA means inactive.
In assay [2] the test system is Human immunodeficiency virus 1. Description: Compound was tested for anti HIV-1 and cytopathic effects in XTT assay;IA means inactive. In kind it is functional, organism-based.

Each structure is given as a SMILES string. The source made the active and inactive calls. No cut-off for these calls is given here.

Regarding `Nc1ccn([C@@H]2C[C@H](CO)C(CO)(CO)O2)c(=O)n1`, in assay [1], the inhibition entry was “inactive”. Besides, the result in assay [2] was inactive.
With `Cc1cn([C@H]2C[C@H](CO)C(CO)(CO)O2)c(=O)[nH]c1=O`, in assay [1], the inhibition entry was “inactive”. Moreover, in assay [2], the result was inactive.
`Cc1cn([C@@H]2C[C@H](CO)C(CO)(CO)O2)c(=O)[nH]c1=O`: the inhibition result in assay [1] is “inactive”. For the same compound, in assay [2], the result was inactive.
Consider `Nc1ccn([C@H]2C[C@H](CO)C(CO)(CO)O2)c(=O)n1`, for which the inhibition entry in assay [1] is “inactive”. Also, in assay [2], the result was inactive.
